System: Mouse Acetylcholine-Bromide-Induced Abdominal Constriction
Assay: Mouse Acetylcholine-Bromide-Induced Abdominal Constriction Assay
Format: in vivo
Settings: p.o. 30 minutes before 5.5 mg/kg i.p. acetylcholine bromide, ten minute observation; for % Inhibition 30 mg Kg (percent inhibition of writhing, % analgesia): at least 20 animals per group; for ED50: Mus musculus, po, four doses, probit analysis, read-out: ED50 (that dose which inhibits writhing by 50%)
Procedure: Mouse Acetylcholine-Bromide-Induced Abdominal Constriction Assay
The mouse acetylcholine-induced abdominal constriction assay, as described by Collier et al. in Brit. J. Pharmacol. Chemother, 32: 295-310, 1968, with minor modifications was one test used to assess analgesic potency. The test drugs or appropriate vehicle were administered p.o. and 30 minutes later the animals received an i.p. injection of 5.5 mg/kg acetylcholine bromide (Matheson, Coleman and Bell, East Rutherford, N.J.). The mice where then placed in groups of four into glass bell jars and observed for a ten minute observation period for the occurrence of a writhe which is defined as a wave of constriction and elongation passing caudally along the abdominal wall, accompanied by a twisting of the trunk and followed by extension of the hind limbs. The percent inhibition of writhing (equated to % analgesia) was calculated as follows: The % inhibition of writhing, i.e., % analgesia is equal to the difference between the number of control animals writhing and the number of drug-treated animals writhing times 100 divided by the number of control animals writhing.
At least 20 animals were used for control and in each of the drug treated groups. Four doses were used to determine each dose response curve and ED50 (that dose which inhibits writhing by 50%). The ED50 values and their 95% fiducial limits were determined by a computer assisted probit analysis.

Row | Compound | % Inhibition 30 mg Kg (percent inhibition of writhing, % analgesia) [%] | ED50 [mg/kg]
1 | Brc1ccccc1C1CCC2CCCN21 (single isomer, unassigned) [2f (diasteriomer A), 3-(2-bromophenyl)hexahydro-1H-pyrrolizine] | 60 | –
2 | Brc1ccccc1C1CCC2CCCN21 (single isomer, unassigned) [2f (diasteriomer B), 3-(2-bromophenyl)hexahydro-1H-pyrrolizine] | 100 | 8.7
3 | c1ccc(C2CCC3CCCN32)cc1 (stereo not drawn) [Example 1, Hexahydro-3-phenyl-1H-pyrrolizine] | 100 | 5.7
4 | Cc1ccc(C2CCC3CCCN32)cc1 (stereo not drawn) [Example 3d, Hexahydro-3-(4-methylphenyl)-1H-pyrrolizine] | 100 | –
